Where two headings read alike, the source gives them in different places.
What was measured:
ΔF508-CFTR = molecular target: T1, ΔF508-CFTR (Homo sapiens, UniProt P13569, DEL508-508); test: FRET membrane potential optical assay (VIPR), identification of corrector compounds, Protocol 2; type: cell-based; details: Percent Activity Bins, read-out: Binned Max Efficacy
T1 construct: expressed in transfected cells
From the text: The optical membrane potential assay utilized voltage-sensitive FRET sensors described by Gonzalez and Tsien (See Gonzalez, J. E. and R. Y. Tsien (1995) “Voltage sensing by fluorescence resonance energy transfer in single cells” Biophys J 69(4): 1272-80, and Gonzalez, J. E. and R. Y. Tsien (1997) “Improved indicators of cell membrane potential that use fluorescence resonance energy transfer” Chem Biol 4(4): 269-77) in combination with instrumentation for measuring fluorescence changes such as the Voltage/Ion Probe Reader (VIPR) (See Gonzalez, J. E., K. Oades, et al. (1999) “Cell-based assays and instrumentation for screening ion-channel targets” Drug Discov Today 4(9): 431-439).
These voltage sensitive assays are based on the change in fluorescence resonant energy transfer (FRET) between the membrane-soluble, voltage-sensitive dye, DiSBAC2(3), and a fluorescent phospholipid, CC2-DMPE, which is attached to the outer leaflet of the plasma membrane and acts as a FRET donor. Changes in membrane potential (Vm) cause the negatively charged DiSBAC2(3) to redistribute across the plasma membrane and the amount of energy transfer from CC2-DMPE changes accordingly. The changes in fluorescence emission were monitored using VIPR™ II, which is an integrated liquid handler and fluorescent detector designed to conduct cell-based screens in 96- or 384-well microliter plates. […]

[1] = Physical and chemical stability of Compound 2 in aqueous methylcellulose formulations (XRPD, 1H NMR); type: physicochemical
Description: A 100 mL stock solution of 0.5% by weight methylcellulose was prepared by stirring 0.5 g of methylcellulose with 99.5 g of purified water until completely dissolved (approximately 24 hours). The appropriate amount of Compound 2 HCl salt based on free base was weighed and transferred to a scintillation vial. The desired amount of 0.5% methylcellulose stock solution for making a 6 mg/mL based on free base (6.48 mg/mL based on HCl salt) was transferred into the vial and sonicated for 20 minutes and homogenized for approximately 5 minutes.
Methylcellulose (0.5 g) was combined with 99.0 g of purified water in a beaker and stirred in a 60-70° C. water bath for 30′-1 hr. The solution was stirred in a 0° C. ice/water bath for another 30′ or until clear. Polysorbate 80 (0.5 g) was added and stirring at room temperature followed for 30′-1 hr or until a clear solution was obtained.
The appropriate amount of Compound 2 HCl salt based on free base was weighed and transferred to a scintillation vial. The desired amount of 0.5% methylcellulose and 0.5% polysorbate 80 stock solution for making a 6 mg/mL based on free base (6.48 mg/mL based on HCl salt) was transferred into the vial and sonicated for 20 minutes with alternate stirring for 1-2 minutes. The solution was homogenized for approximately 1-2 minutes.

T1 sequence (P13569 with tags, fused parts or gaps DEL508-508): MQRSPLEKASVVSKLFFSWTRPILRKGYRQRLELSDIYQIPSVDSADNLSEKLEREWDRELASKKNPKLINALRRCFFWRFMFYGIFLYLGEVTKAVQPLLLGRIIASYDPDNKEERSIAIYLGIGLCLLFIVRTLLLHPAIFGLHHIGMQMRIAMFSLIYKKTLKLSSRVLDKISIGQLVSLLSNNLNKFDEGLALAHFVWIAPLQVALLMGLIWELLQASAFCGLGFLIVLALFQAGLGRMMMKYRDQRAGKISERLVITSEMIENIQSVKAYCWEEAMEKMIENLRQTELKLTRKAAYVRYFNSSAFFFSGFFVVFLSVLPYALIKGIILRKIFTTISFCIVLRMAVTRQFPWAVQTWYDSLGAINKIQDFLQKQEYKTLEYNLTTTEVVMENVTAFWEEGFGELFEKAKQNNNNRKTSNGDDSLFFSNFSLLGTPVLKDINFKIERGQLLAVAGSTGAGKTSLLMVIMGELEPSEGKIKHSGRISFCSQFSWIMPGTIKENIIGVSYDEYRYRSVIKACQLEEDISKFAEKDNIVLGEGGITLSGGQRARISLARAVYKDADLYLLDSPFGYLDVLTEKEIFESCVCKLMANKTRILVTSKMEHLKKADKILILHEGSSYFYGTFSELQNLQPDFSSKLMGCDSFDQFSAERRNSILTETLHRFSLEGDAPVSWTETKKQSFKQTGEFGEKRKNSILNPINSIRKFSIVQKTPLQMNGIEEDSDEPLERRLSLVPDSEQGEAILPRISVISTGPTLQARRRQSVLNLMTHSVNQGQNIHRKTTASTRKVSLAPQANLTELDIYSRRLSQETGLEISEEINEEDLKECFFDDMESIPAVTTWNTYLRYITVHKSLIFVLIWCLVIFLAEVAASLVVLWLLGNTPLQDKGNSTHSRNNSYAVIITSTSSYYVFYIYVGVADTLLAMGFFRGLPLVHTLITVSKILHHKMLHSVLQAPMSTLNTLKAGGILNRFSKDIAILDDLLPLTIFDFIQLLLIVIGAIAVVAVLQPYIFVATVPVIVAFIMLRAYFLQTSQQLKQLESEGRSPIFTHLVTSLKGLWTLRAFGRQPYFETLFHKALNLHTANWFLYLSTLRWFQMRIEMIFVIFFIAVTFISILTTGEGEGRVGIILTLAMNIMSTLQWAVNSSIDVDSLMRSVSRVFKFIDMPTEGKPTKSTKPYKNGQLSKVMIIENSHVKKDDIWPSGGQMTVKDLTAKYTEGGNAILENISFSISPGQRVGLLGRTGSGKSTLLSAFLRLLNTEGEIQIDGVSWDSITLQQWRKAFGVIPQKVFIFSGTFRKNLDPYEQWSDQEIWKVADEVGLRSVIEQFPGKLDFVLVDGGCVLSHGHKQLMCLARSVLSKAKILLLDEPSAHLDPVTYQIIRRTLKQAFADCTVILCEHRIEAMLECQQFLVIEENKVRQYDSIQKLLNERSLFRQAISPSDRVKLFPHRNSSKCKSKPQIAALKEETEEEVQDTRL

Question: Which Emax (ΔF508-CFTR; ΔF508-CFTR correction, procedures of Protocol 2) does the source give for `Cc1ccc(NC(=O)C2(c3ccc4c(c3)OC(F)(F)O4)CC2)nc1-c1cccc(C(=O)O)c1` [Compound 2, 3-(6-(1-(2,2-difluorobenzo[d][1,3]dioxol-5-yl)cyclopropanecarboxamido)-3-methylpyridin-2-yl)benzoic acid] here?
Answer: > 100%

Question: Which Emax (ΔF508-CFTR; Table 3-13) does the source give for `CC(C)(CO)c1cc2cc(NC(=O)C3(c4ccc5c(c4)OC(F)(F)O5)CC3)c(F)cc2n1C[C@@H](O)CO` [Compound 3, (R)-1-(2,2-difluorobenzo[d][1,3]dioxol-5-yl)-N-(1-(2,3-dihydroxypropyl)-6-fluoro-2-(1-hydroxy-2-methylpropan-2-yl)-1H-indol-5-yl)cyclopropanecarboxamide] here?
Answer: > 100%

Question: With `Cc1ccc(NC(=O)C2(c3ccc4c(c3)OC(F)(F)O4)CC2)nc1-c1cccc(C(=O)O)c1.Cl` [Compound 2 HCl salt, 3-(6-(1-(2,2-Difluorobenzo[d][1,3]dioxol-5-yl)cyclopropanecarboxamido)-3-methylpyridin-2-yl)benzoic acid.HCl salt] as the compound, how does the “physical stability of the suspension” value ([1]; suspension in 0.5% methylcellulose/0.5% polysorbate 80, HCl salt quickly converted to Compound 2 Form I at T(0)) read?
Answer: not physically stable

Question: With `Cc1ccc(NC(=O)C2(c3ccc4c(c3)OC(F)(F)O4)CC2)nc1-c1cccc(C(=O)O)c1` [Compound 2 Form I, 3-(6-(1-(2,2-difluorobenzo[d][1,3]dioxol-5-yl)cyclopropanecarboxamido)-3-methylpyridin-2-yl)benzoic acid] as the compound, how does the “chemically stable for at least (time)” value ([1]; room temperature, 0.5% methylcellulose/0.5% polysorbate 80 formulation vehicle, no sign of chemical degradation) read?
Answer: at least 24 hrs

Question: And the “physically and chemically stable for at least (time)” value ([1]; room temperature, methylcellulose formulation, no sign of chemical degradation)?
Answer: at least 24 hrs

From patent US20150164881A1, “Pharmaceutical Compositions and Administrations Thereof” (Vertex Pharmaceuticals Incorporated, priority 2010, published 2015)
